The IC50 is the concentration at which inhibition is half-maximal.

This experiment concerns PDGFR. Briefly: Rat A10 cell proliferation assay. The class given is cell-based. To be noted: Table 2; Rat A10 cells, recombinant rat PDGF-BB, CellTiter-Glo after 68 hours. On the procedure:
Compounds of Formula (I) provided herein were assayed to measure their capacity to inhibit c-kit and PDGFR kinases using the appropriate assay described below: c-Kit inhibition was evaluated using the Mo7e cell proliferation assay, and PDGFR inhibition was evaluated using the Rat A10 cell proliferation assay and the Human TG/HA-VSMC cell proliferation assay.
Rat A10 cells (ATCC) were resuspended in DMEM supplemented with 1% FBS and 10 ng/mL recombinant rat PDGF-BB at 20,000 cells/mL. The cells were aliquoted into 384 well plates at 50 μL/well and incubated for 4 hours at 37° C. 0.5 μL of test compound 3-fold serially diluted in DMSO was added to each well. The plates were returned to the incubator for a further 68 hours. 25 μL of CellTiter-Glo (Promega) was added to each well and the plates were incubated on the bench for 15 minutes. Luminescence was then read using a CLIPR CCD camera (Molecular Devices).
On to `O=C(N[C@@H]1Cc2ccccc2[C@H]1O)c1ccc(F)c(NC(=O)c2cnc3ccccn23)c1` [F37, N-(2-fluoro-5-{[(1R,2R)-1-hydroxy-2,3-dihydro-1H-inden-2-yl]carbamoyl}phenyl)imidazo[1,2-a]pyridine-3-carboxamide], for which the IC50 amounted to 242 nM.
`O=C(N[C@@H]1Cc2ccccc2[C@@H]1O)c1ccc(F)c(NC(=O)c2cnc3ccccn23)c1` [F38, N-(2-fluoro-5-{[(1S,2R)-1-hydroxy-2,3-dihydro-1H-inden-2-yl]carbamoyl}phenyl)imidazo[1,2-a]pyridine-3-carboxamide]: the IC50 came to 248 nM.
Take `CN(C)CCCOc1ccc(-c2ccn3c(C(=O)Nc4cc(C(=O)N[C@@H]5Cc6ccccc6[C@@H]5O)ccc4F)cnc3c2)cn1` [F39, 7-{6-[3-(dimethylamino)propoxy]pyridin-3-yl}-N-(2-fluoro-5-{[(1S,2R)-1-hydroxy-2,3-dihydro-1H-inden-2-yl]carbamoyl}phenyl)imidazo[1,2-a]pyridine-3-carboxamide]: the half-maximal inhibitory concentration (IC50) stood at 252 nM.
Then `O=C(N[C@H](CO)CC1CCCCC1)c1cccc(NC(=O)c2cnc3ccccn23)c1` [F48, N-(3-{[(2S)-1-cyclohexyl-3-hydroxypropan-2-yl]carbamoyl}phenyl)imidazo[1,2-a]pyridine-3-carboxamide], with 363 nM.
In the case of `CCC[C@@H](CO)NC(=O)c1ccc(F)c(NC(=O)c2cnc3ccccn23)c1` [F49, N-(2-fluoro-5-{[(2S)-1-hydroxypentan-2-yl]carbamoyl}phenyl)imidazo[1,2-a]pyridine-3-carboxamide] it was 373 nM.
With `O=C(N[C@H]1CCCC[C@H]1O)c1ccc(F)c(NC(=O)c2cnc3ccccn23)c1` [F50, N-(2-fluoro-5-{[(1S,2R)-2-hydroxycyclohexyl]carbamoyl}phenyl)imidazo[1,2-a]pyridine-3-carboxamide], the IC50 is 373 nM.
In the case of `O=C(N[C@H]1CCCC[C@@H]1CO)c1ccc(F)c(NC(=O)c2cnc3ccccn23)c1` [F51, N-(2-fluoro-5-{[(1S,2S)-2-(hydroxymethyl)cyclohexyl]carbamoyl}phenyl)imidazo[1,2-a]pyridine-3-carboxamide] it was 387 nM; in that of `O=C(NC12C[C@@H]3C[C@@H](CC(O)(C3)C1)C2)c1ccc(F)c(NC(=O)c2cnc3ccccn23)c1` [F52, N-(2-fluoro-5-{[(5R,7S)-3-hydroxyadamantan-1-yl]carbamoyl}phenyl)imidazo[1,2-a]pyridine-3-carboxamide], 422 nM.
Regarding `O=C(NC1Cc2ccccc2C1O)c1ccc(F)c(NC(=O)c2cnc3ccccn23)c1` (stereo not drawn) [F53, N-{2-fluoro-5-[(1-hydroxy-2,3-dihydro-1H-inden-2-yl)carbamoyl]phenyl}imidazo[1,2-a]pyridine-3-carboxamide], the IC50 came out at 433 nM.
Take `[2H]c1c([2H])c([2H])n2c(C(=O)Nc3cc(C(=O)N[C@H]4c5ccccc5C[C@H]4O)ccc3F)cnc2c1[2H]` [F55, N-(2-fluoro-5-{[(1S,2R)-2-hydroxy-2,3-dihydro-1H-inden-1-yl]carbamoyl}phenyl)-5,6,7,8-tetrahydrogenioimidazo[1,2-a]pyridine-3-carboxamide]: the half-inhibitory concentration (IC50) worked out at 484 nM.
In the case of `O=C(N[C@@H]1CCCC[C@H]1O)c1ccc(F)c(NC(=O)c2cnc3ccccn23)c1` [F56, N-(2-fluoro-5-{[(1R,2R)-2-hydroxycyclohexyl]carbamoyl}phenyl)imidazo[1,2-a]pyridine-3-carboxamide] it was 521 nM; in that of `CCC[C@@H](CO)NC(=O)c1cccc(NC(=O)c2cnc3ccccn23)c1` [F57, N-(3-{[(2S)-1-hydroxypentan-2-yl]carbamoyl}phenyl)imidazo[1,2-a]pyridine-3-carboxamide], 522 nM; in that of `O=C(N[C@H]1CCCC[C@H]1CO)c1ccc(F)c(NC(=O)c2cnc3ccccn23)c1` [F59], 603 nM.
Take `O=C(N[C@H]1c2ccccc2C[C@H]1O)c1ccc(F)c(NC(=O)c2cnc3cc(F)ccn23)c1` [F60, 7-fluoro-N-(2-fluoro-5-{[(1S,2R)-2-hydroxy-2,3-dihydro-1H-inden-1-yl]carbamoyl}phenyl)imidazo[1,2-a]pyridine-3-carboxamide]: the 50% inhibitory concentration (IC50) is 609 nM.
In the case of `O=C(NCC(O)C(F)(F)F)c1ccc(F)c(NC(=O)c2cnc3ccccn23)c1` (stereo not drawn) [F63, N-{2-fluoro-5-[(3,3,3-trifluoro-2-hydroxypropyl)carbamoyl]phenyl}imidazo[1,2-a]pyridine-3-carboxamide] it was 1060 nM; in that of `O=C(NCC1(O)CCCCC1)c1cccc(NC(=O)c2cnc3ccccn23)c1` [F64], 1100 nM.
Consider `O=C(NC(CO)c1ccccc1)c1cccc(NC(=O)c2cnc3ccccn23)c1` (stereo not drawn) [F65, N-{3-[(2-hydroxy-1-phenylethyl)carbamoyl]phenyl}imidazo[1,2-a]pyridine-3-carboxamide], for which the IC50 was found to be 1110 nM.
For `O=C(N[C@H]1c2ccccc2C[C@H]1O)c1cccc(NC(=O)c2cnc3ccccn23)c1` [F68, N-(3-{[(1S,2R)-2-hydroxy-2,3-dihydro-1H-inden-1-yl]carbamoyl}phenyl)imidazo[1,2-a]pyridine-3-carboxamide], the IC50 came to 1520 nM.
In the case of `O=C(NCC1(O)CCCC1)c1cccc(NC(=O)c2cnc3ccccn23)c1` [F69] it was 1850 nM; in that of `O=C(N[C@H]1c2ccccc2C[C@H]1O)c1ccc(F)c(NC(=O)c2cnc3ccc(COCC(F)(F)F)cn23)c1` [F70, N-(2-fluoro-5-{[(1S,2R)-2-hydroxy-2,3-dihydro-1H-inden-1-yl]carbamoyl}phenyl)-6-[(2,2,2-trifluoroethoxy)methyl]imidazo[1,2-a]pyridine-3-carboxamide], 2090 nM; in that of `O=C(N[C@H]1c2ccccc2C[C@H]1O)c1ccc(F)c(NC(=O)c2cnc3cc(N4CCOCC4)ccn23)c1` [F71, N-(2-fluoro-5-{[(1S,2R)-2-hydroxy-2,3-dihydro-1H-inden-1-yl]carbamoyl}phenyl)-7-(morpholin-4-yl)imidazo[1,2-a]pyridine-3-carboxamide], 2180 nM.
In the case of `O=C(NCC1(O)CCC1)c1cccc(NC(=O)c2cnc3ccccn23)c1` [F73, N-(3-{[(1-hydroxycyclobutyl)methyl]carbamoyl}phenyl)imidazo[1,2-a]pyridine-3-carboxamide], the IC50 amounted to 3270 nM.
Turning to `O=C(N[C@H]1CCC[C@H]1O)c1ccc(F)c(NC(=O)c2cnc3ccccn23)c1` [F74, N-(2-fluoro-5-{[(1S,2R)-2-hydroxycyclopentyl]carbamoyl}phenyl)imidazo[1,2-a]pyridine-3-carboxamide], the IC50 stood at 3480 nM.
In the case of `O=C(N[C@@H]1CCC[C@H]1O)c1ccc(F)c(NC(=O)c2cnc3ccccn23)c1` [F75, N-(2-fluoro-5-{[(1R,2R)-2-hydroxycyclopentyl]carbamoyl}phenyl)imidazo[1,2-a]pyridine-3-carboxamide] it was 3840 nM.
For the molecule `O=C(N[C@H]1CC[C@H](O)CC1)c1cccc(NC(=O)c2cnc3ccccn23)c1` [F76, N-{3-[(4-hydroxycyclohexyl)carbamoyl]phenyl}imidazo[1,2-a]pyridine-3-carboxamide], the half-maximal inhibitory concentration (IC50) came out at 9420 nM.
In the case of `O=C(NC1(CO)CCCC1)c1cccc(NC(=O)c2cnc3ccccn23)c1` [F77, N-(3-{[1-(hydroxymethyl)cyclopentyl]carbamoyl}phenyl)imidazo[1,2-a]pyridine-3-carboxamide] it was 9450 nM.
In the case of `C[C@@H](CO)NC(=O)c1cccc(NC(=O)c2cnc3ccccn23)c1` [F78, N-(3-{[(2S)-1-hydroxypropan-2-yl]carbamoyl}phenyl)imidazo[1,2-a]pyridine-3-carboxamide] it was above 10000 nM; in that of `CC[C@@H](CO)NC(=O)c1cccc(NC(=O)c2cnc3ccccn23)c1` [F79, N-(3-{[(2S)-1-hydroxybutan-2-yl]carbamoyl}phenyl)imidazo[1,2-a]pyridine-3-carboxamide], above 10000 nM.
`CC(C)[C@H](CO)NC(=O)c1cccc(NC(=O)c2cnc3ccccn23)c1` [F80, N-(3-{[(2R)-1-hydroxy-3-methylbutan-2-yl]carbamoyl}phenyl)imidazo[1,2-a]pyridine-3-carboxamide]: the IC50 is above 10000 nM.
As to `O=C(N[C@H]1c2ccccc2C[C@H]1O)c1ccc(F)c(NC(=O)c2cnc3ccc(-n4ccnc4)cn23)c1` [F81, N-(2-fluoro-5-{[(1S,2R)-2-hydroxy-2,3-dihydro-1H-inden-1-yl]carbamoyl}phenyl)-6-(1H-imidazol-1-yl)imidazo[1,2-a]pyridine-3-carboxamide], the half-inhibitory concentration (IC50) is above 10000 nM.
In the case of `O=C(N[C@@H]1CCCC[C@@H]1O)c1ccc(F)c(NC(=O)c2cnc3ccccn23)c1` [F82, N-(2-fluoro-5-{[(1R,2S)-2-hydroxycyclohexyl]carbamoyl}phenyl)imidazo[1,2-a]pyridine-3-carboxamide] it was 304 nM; in that of `[2H]c1c([2H])c([2H])n2c(C(=O)Nc3cc(C(=O)N[C@@H]4c5ccccc5C[C@@H]4O)ccc3F)cnc2c1[2H]` [F83, N-(2-fluoro-5-{[(1R,2S)-2-hydroxy-2,3-dihydro-1H-inden-1-yl]carbamoyl}phenyl)-5,6,7,8-tetrahydrogenioimidazo[1,2-a]pyridine-3-carboxamide], 289 nM; in that of `Cc1ccc2ncc(C(=O)Nc3cc(C(=O)N[C@@H]4c5ccc(Cl)cc5C[C@@H]4O)ccc3F)n2c1` [F84, N-(5-{[(1R,2S)-5-chloro-2-hydroxy-2,3-dihydro-1H-inden-1-yl]carbamoyl}-2-fluorophenyl)-6-methylimidazo[1,2-a]pyridine-3-carboxamide], 584 nM.

Source of the values: US20140206682A1, “COMPOUNDS AND COMPOSITIONS AS PDGFR KINASE INHIBITORS” (NOVARTIS PHARMACEUTICALS UK LIMITED, priority 2011, published 2014).
